We go through eight molecules from patent US20110237665A1, “Agrochemical Composition Comprising Pesticide and UV Absorber” (BASF SE, priority 2008, published 2011).

Where “and” joins values, the source holds several entries; their conditions need not be identical. Equal values may be shown once.

Data set [1] in a line: Light exposure of dried metaflumizone formulation with UV absorber (Atlas Suntest, seven days), residual content by UPLC. It is filed as physicochemical. The conditions noted are these: 100 g/l metaflumizone, 40 g/l UV absorber, exposed to light seven days, unexposed blank = 100%. On the procedure:
A formulation comprising 100 g/l of metaflumizone and 40 g/l of UV absorber was prepared by two different methods: a) Wet grinding with subsequent addition of UV absorber as in Example 9. b) Wet grinding with UV absorber as in Example 8. About 20 mg of the mixture prepared in this way were applied to a microscope slide, allowed to dry on for 30 minutes and exposed to light continuously for seven days (Atlas Suntest CRT plus, “Outdoor” setting, exposure to light corresponds to the same spectrum and intensity as normal sunlight at midday in summer). After the exposure time, the samples were dissolved in dimethylsulfoxide. […] For comparison, a sample without UV absorber was also allowed to run (reference) in each exposure series. Evaluation: 2 samples were dissolved again as blank samples immediately after the drying on, without exposure to light, and the content of metaflumizone was determined. The resulting mean was set at 100% and the remaining samples were standardized against this.

Data set [2] is described as follows: Determination of the surface tension of the UV absorbers. It is filed as physicochemical. The conditions noted are these: 25° C.; UV absorber concentrations from about 1 mg/l to 5,000 mg/l; water to air. Here is the method:
The surface tension (ST) of the UV absorbers was determined at 25° C. at concentrations of the UV absorber of from about 1 mg/l to 5,000 mg/l. The ST of water to air is, for comparison, 72.4 mN/m, the ST of commercial surfactants is about 30-35 mN/m.

Setting [3] is: formulation by method a) (wet grinding, subsequent addition of UV absorber).

With “p-Aminobenzoic acid ethoxylate [Uvinul P25, reference compound]”, the “Residual content of metaflumizone (%)” value in data set [1] (setting [3]) is on record as 53.3%.

As to “2-cyano-3,3-diphenyl-acrylic acid [Pluriol A500E] ester [Example 2B]”, the “Residual content of metaflumizone (%)” value in data set [1] (setting [3]) is listed as 76.7%.

Consider “2-cyano-3,3-diphenylacrylic acid [EO-tridecanol]ester [Example 2D]”, for which the “ST [mN/m] (surface tension)” value in data set [2] was determined as 33.9 mN/m.

On to “2,4,6-trianilino-p-(carboxy-[Pluriol A500E]-yl)-1,3,5-triazine [Example 4B]”, for which, in data set [1] (setting [3]), the “Residual content of metaflumizone (%)” value amounted to 77.5%.

“3,6,9,12-tetraoxatridecylcinnamic acid amide [Example 6A]”: the “Residual content of metaflumizone (%)” value in data set [1] (setting [3]) was determined as 74.7%.

Consider `COCCOCCOCCOCCOCCOCCOCCOC(=O)C(C#N)=C(c1ccccc1)c1ccccc1` [Example 2A, 2-cyano-3,3-diphenyl-acrylic acid [Pluriol A350E] ester], for which the “ST [mN/m] (surface tension)” value in data set [2] is listed as 43.1 mN/m. For the same molecule, the “Residual content of metaflumizone (%)” value in data set [1] (setting [3]) stood at 87.1%.

For the molecule `COCCOCCOCCOCCOC(=O)C=Cc1ccccc1` [Example 6B, cinnamic acid 3,6,9,12-tetraoxatridecyl ester], the “Residual content of metaflumizone (%)” value in data set [1] (setting [3]) was found to be 66.5%.

With `COCCOCCOCCOCCOCCOCCOCCOC(=O)COc1ccc(C(=O)c2ccccc2)c(O)c1` [Example 3B, (4-benzoyl-3-hydroxy-phenoxy)-acetic acid [Pluriol A350E] ester], in data set [2], the “ST [mN/m] (surface tension)” value is reported as 45.7 mN/m. Further, the “Residual content of metaflumizone (%)” value was 85.9% and 83.2% in data set [1] (setting [3]); 82.8% in data set [1] (formulation by method b) (wet grinding with UV absorber)).
